# Data from ChEMBL document CHEMBL1201862, “PubChem BioAssay data set” (2004).
# The source made the active and inactive calls.
# What was measured:
# [1] = target: T1, Heat shock factor protein 1 (Mus musculus, UniProt P38532); experiment: HSF1 potentiators in luciferase reporter cells, confirmation, cell-based, NIH3T3, luminescence, dose retest (AID 435004); type: functional;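 note: stress induced by proteasome inhibitor MG132 added 30 min after compound; luciferase reporter driven by HSF1 response element in NIH3T3 cells; actives raise luminescence as potentiators of the MG132 stress response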
# T1 sequence (P38532 whole entry): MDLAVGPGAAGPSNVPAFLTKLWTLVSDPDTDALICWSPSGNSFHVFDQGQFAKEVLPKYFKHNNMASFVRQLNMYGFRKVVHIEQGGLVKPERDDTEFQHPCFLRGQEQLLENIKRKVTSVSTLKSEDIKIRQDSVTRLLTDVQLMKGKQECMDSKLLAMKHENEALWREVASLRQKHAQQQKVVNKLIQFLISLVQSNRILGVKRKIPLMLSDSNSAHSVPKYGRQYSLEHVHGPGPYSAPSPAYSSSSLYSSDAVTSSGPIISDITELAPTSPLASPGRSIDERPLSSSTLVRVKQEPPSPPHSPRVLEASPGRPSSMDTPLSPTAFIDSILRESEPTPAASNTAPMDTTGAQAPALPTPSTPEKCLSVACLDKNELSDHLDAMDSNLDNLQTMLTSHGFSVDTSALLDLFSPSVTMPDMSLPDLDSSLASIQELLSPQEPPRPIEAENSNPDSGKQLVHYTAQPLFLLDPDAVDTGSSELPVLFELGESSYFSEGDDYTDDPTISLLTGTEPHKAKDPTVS
# Cytochrome P450 2C9 = Cytochrome P450 2C9 (Homo sapiens, UniProt P11712)
# [2] = NIH-3T3 fibroblast cytotoxicity, dose response, cytotoxicity control, cell-based, fluorescence, Alamar Blue, secondary assay (AID 2327); type: functional;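 note: NIH-3T3 mouse fibroblasts cultured with fluconazole at 8 µg/mL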
# [3] = C. albicans growth with fluconazole, confirmation, fluorescence, retest (AID 2467); type: functional, cell-based
# INS1 = experiment: beta cell apoptosis inhibitors, cytokine rescue, dose response, luminescence, retest (AID 449756); type: functional, cell-based; settings: Rattus norvegicus;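 note: cell death triggered by IL-1 beta plus TNF-alpha plus IFN-gamma mixture; protective hits raise ATP signal compared with cytokine alone wells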
# Cytochrome P450 2C19 = Cytochrome P450 2C19 (Homo sapiens, UniProt P33261); experiment: Cytochrome panel assay with activity outcomes. Panel member name: p450-cyp2c19 Compounds with AC50 equal or less than 10 uM are considered active; type: functional; settings: read-out: AC50
# Cytochrome P450 3A4 = Cytochrome P450 3A4 (Homo sapiens, UniProt P08684);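 note: CYP3A4 tested as one member of a cytochrome P450 panel screen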
# [4] = inhibitors of intracellular T. cruzi replication, confirmation, NIH3T3 host cells, beta-gal luminescence (AID 2044); type: functional, cell-based;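 note: intracellular parasites grown in NIH/3T3 mouse fibroblasts as host cells; luminescent beta-galactosidase reporter signal from transgenic T. cruzi replicating inside host cells; inhibitors lower the luminescence signal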
# [5] = cytotoxicity toward NIH3T3 fibroblasts, dose response, counter-screen, cell-based, ATP luminescence, mouse fibroblasts (AID 2010); type: functional;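 note: cells exposed to compound for about 90 hours before reading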
# Cytochrome P450 2D6 = Cytochrome P450 2D6 (Homo sapiens, UniProt P10635);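 note: CYP2D6 member of a cytochrome P450 panel assay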
# [6] = target: T2, Replicative DNA helicase DnaB (Mycobacterium tuberculosis, UniProt P9WMR3); experiment: DnaB intein splicing inhibitors, dose response, biochemical, cell-free fluorescence (AID 449749); type: functional
# T2 sequence (P9WMR3 whole entry): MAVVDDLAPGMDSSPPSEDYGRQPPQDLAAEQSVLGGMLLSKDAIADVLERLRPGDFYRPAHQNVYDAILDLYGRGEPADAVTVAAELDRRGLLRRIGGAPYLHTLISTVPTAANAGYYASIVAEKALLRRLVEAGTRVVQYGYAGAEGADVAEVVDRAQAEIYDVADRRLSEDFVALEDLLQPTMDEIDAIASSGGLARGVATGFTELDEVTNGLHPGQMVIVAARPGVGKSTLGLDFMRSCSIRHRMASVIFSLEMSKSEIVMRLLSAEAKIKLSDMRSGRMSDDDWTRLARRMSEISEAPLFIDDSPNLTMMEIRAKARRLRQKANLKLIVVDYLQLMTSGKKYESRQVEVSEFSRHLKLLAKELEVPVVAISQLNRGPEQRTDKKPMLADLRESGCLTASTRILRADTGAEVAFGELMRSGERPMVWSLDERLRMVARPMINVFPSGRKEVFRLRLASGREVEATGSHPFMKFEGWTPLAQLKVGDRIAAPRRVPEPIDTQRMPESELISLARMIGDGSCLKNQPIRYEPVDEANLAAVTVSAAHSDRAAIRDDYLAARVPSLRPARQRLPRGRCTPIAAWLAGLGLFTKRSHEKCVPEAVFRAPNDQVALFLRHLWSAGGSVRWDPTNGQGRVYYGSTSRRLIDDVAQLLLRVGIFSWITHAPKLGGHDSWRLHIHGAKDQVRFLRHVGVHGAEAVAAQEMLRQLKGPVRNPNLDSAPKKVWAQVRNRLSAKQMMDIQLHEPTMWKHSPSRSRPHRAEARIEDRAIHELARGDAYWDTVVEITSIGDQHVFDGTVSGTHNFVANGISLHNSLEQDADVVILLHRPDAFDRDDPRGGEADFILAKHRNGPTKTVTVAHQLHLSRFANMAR
# Protein RecA = target: T3, Protein RecA (Mycobacterium tuberculosis, UniProt P9WHJ3); experiment: Fluorescence Cell-Free Homogeneous Dose Retest to Identify Inhibitors of RecA-Intein Splicing Activity. [Related pubchem assays (depositor defined):AID2097, AID2223, AID489010, AID492950]; type: functional
# T3 sequence (P9WHJ3 whole entry): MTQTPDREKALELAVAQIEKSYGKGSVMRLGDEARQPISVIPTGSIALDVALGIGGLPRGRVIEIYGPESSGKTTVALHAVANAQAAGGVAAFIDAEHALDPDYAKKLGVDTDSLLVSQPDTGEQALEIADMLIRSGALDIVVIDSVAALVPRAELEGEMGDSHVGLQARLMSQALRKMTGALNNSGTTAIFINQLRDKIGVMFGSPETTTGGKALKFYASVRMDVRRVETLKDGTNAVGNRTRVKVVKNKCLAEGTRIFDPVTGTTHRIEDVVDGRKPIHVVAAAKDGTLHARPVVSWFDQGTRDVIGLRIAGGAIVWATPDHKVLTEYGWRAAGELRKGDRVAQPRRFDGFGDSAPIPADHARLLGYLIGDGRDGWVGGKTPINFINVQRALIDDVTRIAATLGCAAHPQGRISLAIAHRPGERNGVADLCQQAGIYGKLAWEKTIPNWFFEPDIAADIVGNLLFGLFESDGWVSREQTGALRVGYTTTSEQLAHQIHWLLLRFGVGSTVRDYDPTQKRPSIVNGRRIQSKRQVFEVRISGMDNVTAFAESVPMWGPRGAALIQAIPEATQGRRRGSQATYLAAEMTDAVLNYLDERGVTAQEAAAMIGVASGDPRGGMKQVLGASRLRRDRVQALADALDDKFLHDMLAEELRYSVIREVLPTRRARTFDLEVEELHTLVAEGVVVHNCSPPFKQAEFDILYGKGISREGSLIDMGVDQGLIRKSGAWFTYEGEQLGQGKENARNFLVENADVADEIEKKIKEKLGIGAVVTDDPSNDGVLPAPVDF
# Cytochrome P450 2C19, sequence (P33261 whole entry): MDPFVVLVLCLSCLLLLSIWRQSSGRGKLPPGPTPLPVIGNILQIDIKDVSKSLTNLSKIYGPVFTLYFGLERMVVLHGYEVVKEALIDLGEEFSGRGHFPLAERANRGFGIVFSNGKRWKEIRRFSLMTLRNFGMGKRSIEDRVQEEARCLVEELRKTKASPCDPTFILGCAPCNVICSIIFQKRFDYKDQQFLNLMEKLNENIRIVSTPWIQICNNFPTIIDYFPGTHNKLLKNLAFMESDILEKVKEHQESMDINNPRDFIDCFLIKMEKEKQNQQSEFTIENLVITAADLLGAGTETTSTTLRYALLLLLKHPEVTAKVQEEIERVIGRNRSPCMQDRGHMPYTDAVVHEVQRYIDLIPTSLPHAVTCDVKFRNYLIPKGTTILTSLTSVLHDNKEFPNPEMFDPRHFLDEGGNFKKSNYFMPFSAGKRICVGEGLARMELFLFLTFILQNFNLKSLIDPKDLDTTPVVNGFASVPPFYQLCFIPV
# Cytochrome P450 3A4, sequence (P08684 whole entry): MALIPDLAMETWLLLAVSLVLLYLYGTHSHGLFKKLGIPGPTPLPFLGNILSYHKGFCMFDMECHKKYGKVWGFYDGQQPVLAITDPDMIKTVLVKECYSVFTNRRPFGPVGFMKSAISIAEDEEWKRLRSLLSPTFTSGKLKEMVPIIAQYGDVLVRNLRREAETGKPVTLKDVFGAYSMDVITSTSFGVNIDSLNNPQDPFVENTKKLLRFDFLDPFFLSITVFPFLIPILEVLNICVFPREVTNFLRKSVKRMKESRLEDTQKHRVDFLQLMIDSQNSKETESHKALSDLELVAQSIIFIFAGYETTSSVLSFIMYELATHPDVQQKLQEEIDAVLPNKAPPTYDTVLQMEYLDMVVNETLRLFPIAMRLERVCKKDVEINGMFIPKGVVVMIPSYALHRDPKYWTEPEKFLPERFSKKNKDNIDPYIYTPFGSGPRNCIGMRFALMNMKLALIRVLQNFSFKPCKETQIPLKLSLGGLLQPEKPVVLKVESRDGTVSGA
# Cytochrome P450 2D6, sequence (P10635 whole entry): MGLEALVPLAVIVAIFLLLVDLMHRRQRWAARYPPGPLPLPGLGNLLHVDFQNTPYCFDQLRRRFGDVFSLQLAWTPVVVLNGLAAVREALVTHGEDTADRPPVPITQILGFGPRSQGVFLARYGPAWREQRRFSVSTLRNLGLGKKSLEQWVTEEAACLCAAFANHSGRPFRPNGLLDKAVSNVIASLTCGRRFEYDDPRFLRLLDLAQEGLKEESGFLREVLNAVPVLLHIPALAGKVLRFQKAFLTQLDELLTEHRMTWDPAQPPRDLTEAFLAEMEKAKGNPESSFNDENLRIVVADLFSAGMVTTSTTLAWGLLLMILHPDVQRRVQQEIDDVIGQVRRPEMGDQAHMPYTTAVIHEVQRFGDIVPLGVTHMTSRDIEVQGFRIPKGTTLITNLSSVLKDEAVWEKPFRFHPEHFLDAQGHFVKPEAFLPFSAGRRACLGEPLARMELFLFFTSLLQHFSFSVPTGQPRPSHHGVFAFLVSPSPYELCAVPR
# Cytochrome P450 2C9, sequence (P11712 whole entry): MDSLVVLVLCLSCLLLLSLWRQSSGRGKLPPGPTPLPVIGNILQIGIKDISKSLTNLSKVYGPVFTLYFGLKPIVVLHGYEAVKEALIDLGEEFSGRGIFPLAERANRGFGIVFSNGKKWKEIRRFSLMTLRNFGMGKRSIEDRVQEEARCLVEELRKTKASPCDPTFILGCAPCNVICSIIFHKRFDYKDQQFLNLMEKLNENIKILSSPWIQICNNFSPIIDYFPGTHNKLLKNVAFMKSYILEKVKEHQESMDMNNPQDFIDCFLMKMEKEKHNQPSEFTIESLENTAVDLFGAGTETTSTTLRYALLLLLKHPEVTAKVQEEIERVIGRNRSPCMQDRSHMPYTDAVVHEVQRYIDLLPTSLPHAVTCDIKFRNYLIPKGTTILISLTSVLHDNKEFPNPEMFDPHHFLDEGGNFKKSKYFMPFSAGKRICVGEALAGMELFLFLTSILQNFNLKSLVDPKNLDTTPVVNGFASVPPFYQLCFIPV
smiles,measurement,setting,value
CCc1nc(SCC(=O)c2ccc(Cl)s2)c2oc3ccccc3c2n1,EC50,[1],43.5 µM (active)
Cc1ccc(C(C)(O)CS(=O)(=O)Cc2ccccc2Cl)cc1 (configuration not stated),EC50,[1],> 260 µM (inactive)
Cc1cccc(-c2cc3c(nn2)-c2ccccc2C3=O)c1,EC50,[1],0.897 µM (active)
COc1cc(/C=C/C(=O)O)cc(S(=O)(=O)NCCCO)c1OC,AC50,Cytochrome P450 2C9,10 µM (inconclusive)
CCOC(=O)CNC(c1ccccc1)c1cc(Br)ccc1NC(=O)CCN1CCOCC1 (configuration not stated),EC50,[2],39.4 µM (active)
same,EC50,[3],3.44 µM (active)
CC(=O)N1N=C(c2ccccc2)CC1c1ccccc1[N+](=O)[O-] (configuration not stated),EC50,[1],> 260 µM (inactive)
Cc1ccc(OCc2cc(C(=O)N(C)Cc3cc(C4CC4)[nH]n3)no2)cc1C,AC50,INS1,> 260 µM (inactive)
Cc1cc(C)n(-c2ccc(C(=O)Nc3cc(C(F)(F)F)ccc3N3CCOCC3)cc2)n1,AC50,Cytochrome P450 2C19,10 µM (inconclusive)
same,AC50,Cytochrome P450 3A4,14.1 µM (inconclusive)
CCn1c(C)c(/C=N/Nc2nc3ccccc3s2)c2ccccc21,EC50,[4],2.5 µM (active)
same,EC50,[5],> 60 µM (not active)
same,AC50,Cytochrome P450 2D6,14.1 µM (inconclusive)
Cc1nc2c(n1C1CCCCC1)C(=O)c1ccccc1C2=O,AC50,Cytochrome P450 2D6,22.4 µM (inconclusive)
C=CCn1c(SCC)nc2sc3c(c2c1=O)CCc1ccccc1-3,AC50,Cytochrome P450 2D6,11.2 µM (inconclusive)
Cc1nn(C(CC(=O)O)C(=O)O)c(C)c1Br (configuration not stated),EC50,[1],> 260 µM (inactive)
CCCn1nnnc1-c1cccc(Cl)c1,AC50,Cytochrome P450 2C9,1.26 µM (inconclusive)
Cc1cc(O)c2n(Cc3ccccc3Cl)nc[n+]2n1,EC50,[1],> 260 µM (inactive)
CCCc1cc2c(n1Cc1cc(F)cc(F)c1)C(C)C1CN(C(=O)c3ccccc3)C(C)(C(=O)OC)C21 (configuration not stated),AC50,Cytochrome P450 2C19,39.8 µM (inconclusive)
same,AC50,Cytochrome P450 2D6,25.1 µM (inconclusive)
COc1ncc2nc(CCc3ccccc3)c(=O)n(C)c2n1,AC50,Cytochrome P450 2C19,25.1 µM (inconclusive)
same,AC50,Cytochrome P450 2D6,20 µM (inconclusive)
CC(=O)NC(c1ccco1)c1cc(F)c2cccnc2c1O (configuration not stated),AC50,INS1,2.71 µM (active)
CCOC(=O)C1C(=O)NC(C)C1c1ccccc1 (configuration not stated),AC50,Cytochrome P450 2C19,31.6 µM (inconclusive)
same,AC50,Cytochrome P450 2D6,0.0501 µM (inconclusive)
CCN(c1ccccc1)S(=O)(=O)c1cc(NC(=O)Nc2ccccc2C#N)ccc1Cl,EC50,[1],> 260 µM (inactive)
CCSc1nnc(NC(=O)c2cccnc2Cl)s1,EC50,[1],> 260 µM (inactive)
Cc1ccc(O)c(-c2cc3ccccc3[nH]2)c1,EC50,[2],> 160 µM (inactive)
same,EC50,[3],> 38 µM (not active)
CS/C(=C\[N+](=O)[O-])Nc1ccc(Cl)cc1,EC50,[2],> 150 µM (inconclusive)
same,EC50,[3],> 38 µM (not active)
same,AC50,[6],23.2 µM (active)
same,EC50,Protein RecA,12.7 µM (active)
Cc1ccc[n+](CC(=O)Nc2ccc([N+](=O)[O-])cc2Cl)c1,EC50,[1],> 260 µM (inactive)
COCC(=O)N1CCC[C@@]2(CCN(Cc3nccs3)C2)C1,AC50,Cytochrome P450 3A4,20 µM (inconclusive)
COc1ccc(COC(=O)N/N=C2/C[C@@H](O)[C@@H](O)[C@@H]3[C@@H]4C(=O)N([C@@H](C)c5ccccc5)C(=O)[C@H]4CC[C@@H]23)cc1,AC50,Cytochrome P450 3A4,3.98 µM (inconclusive)
Cc1ccc(NC(=O)NCCCc2ccccc2)cc1,AC50,Cytochrome P450 3A4,7.94 µM (inconclusive)
O=C(COc1ccccc1)Nc1cc(C(F)(F)F)ccc1N1CCCC1,AC50,Cytochrome P450 2D6,17.8 µM (inconclusive)
NC(=O)CC12CC3CC(C1)CC(CC(N)=O)(C3)C2,EC50,[2],> 160 µM (inactive)
same,EC50,[3],> 38 µM (not active)
CCOc1ccc(NC(=O)N(C2CCCCC2)C(C)c2ccncc2)cc1 (configuration not stated),AC50,Cytochrome P450 2D6,17.8 µM (inconclusive)
Oc1ccc2ccccc2c1/C=N\Cc1c(O)ccc2ccccc12,AC50,Cytochrome P450 2D6,3.98 µM (inconclusive)
O=C(Oc1cccc2cccnc12)c1cccc(N2C(=O)C3C4CCC(C4)C3C2=O)c1 (configuration not stated),AC50,INS1,16.2 µM (active)
COc1ccc(NC(=O)c2cc(C)n(Cc3cccs3)c2C)cc1,EC50,[1],106 µM (inconclusive)
CCC(C)c1ccc(Nc2ncccc2C#N)cc1 (configuration not stated),AC50,Cytochrome P450 2D6,28.2 µM (inconclusive)
c1ccc2c(CC3NCCN3)cccc2c1,AC50,Cytochrome P450 2D6,3.98 µM (inconclusive)
CC(C)(C)c1ccc(NNC(=O)C2CCC2)cc1,AC50,INS1,7.4 µM (active)
